{"source": "a melting point compilation (Tetko et al.; mined from patent text by program, amines drawn as free bases though some values may be those of a salt)"}
{"units": {"melting point": "°C"}}
{"smiles": "CCOC(=O)Cn1cc(CC(=O)O)c2ccccc21", "melting point": 138}
{"smiles": "C=CCOc1ccc(C[C@H](NC(=O)OC(C)(C)C)C(=O)N[C@H](C(=O)N[C@@H](CC=C)C(=O)OC)C(C)C)cc1", "melting point": "106 to 108"}
{"smiles": "CN1CCC(c2c[nH]c3ccc(OS(=O)(=O)c4c(F)cccc4F)cc23)CC1", "melting point": "214 to 215"}
{"smiles": "O=S1(=O)N=CN(C2CC2)c2cc(Br)cc(C(F)(F)F)c21", "melting point": "253 to 254"}
{"smiles": "COC(=O)c1ccc(C(=O)CC(=O)c2ccccc2)cc1", "melting point": "107 to 108"}
{"smiles": "CCc1cn(C2CC(O)C(CNC(=O)C(C)Oc3ccc(Cl)cc3Cl)O2)c(=O)[nH]c1=O", "note": "(mixture of isomers)", "melting point": "240 to 243"}
{"smiles": "COc1ccc(/C=C/c2c(Cl)cncc2Cl)c2cc(-c3ccncc3)oc12", "melting point": "204 to 206"}
{"smiles": "CN(C)C=C(C(=O)C(=O)c1ccccc1C(=O)O)c1ccccc1", "melting point": 153}
{"smiles": "CCS(=O)(=O)c1ccc(F)c([N+](=O)[O-])c1", "melting point": "128 to 131"}
{"smiles": "O=C1CCN(C(=O)C(F)(F)F)CC1", "melting point": 68}
{"smiles": "C(=Cc1nc(CNc2ccc(CCCCn3ccnn3)cc2)co1)c1ccc2c(c1)OCO2", "melting point": "130 to 131"}
{"smiles": "Cc1cc(C)cc(C(=O)NC(C#N)n2cccn2)c1", "note": "(stereo not given)", "melting point": "180 to 183"}
{"smiles": "O=c1c(Br)c(OCc2ccccc2)ccn1CCc1cccs1", "melting point": "128 to 130"}
{"smiles": "COc1cc(OC)c2c(=O)cc(-c3ccc(N(C)C)cc3)oc2c1C1=CCN(C)CC1", "melting point": "148 to 150"}
{"smiles": "CS(=O)(=O)Nc1cc(-c2ncc(C(F)(F)F)cc2Cl)ccc1Cl", "melting point": "133 to 134"}
{"smiles": "Cc1cccc(-c2[nH]c(C(C)C)nc2-c2ccc(F)c(-c3c[nH]c(C)n3)c2)n1", "melting point": "230 to 234"}
{"smiles": "Oc1ccc2c(c1)COc1c-2cc2ccc(O)cc2c1-c1cccc(F)c1", "melting point": "225 to 227"}
{"smiles": "CN(Cc1ccc(Cl)c(Cl)c1)C(=O)C1=C(O)C(=O)N(CCC(=O)O)C1", "melting point": "183 to 184"}
{"smiles": "c1ccc2c(c1)cnn2-c1nc(NC2CCCCC2)c2ccccc2n1", "melting point": "278 to 281"}
{"smiles": "Nc1cc(C(=O)O)cc(S(N)(=O)=O)c1NCCc1ccccc1", "melting point": "194 to 195"}
{"smiles": "CN(C)Cc1cc2cc(C(=O)NN)ccc2o1", "melting point": "82 to 92"}
{"smiles": "O=c1ccc(-c2ccccc2O)n[nH]1", "melting point": "289 to 302"}
{"smiles": "COC(=O)CCCCNC(=O)C(CO)NS(=O)(=O)c1ccc(Cl)cc1", "note": "(racemic)", "melting point": "92 to 94"}
{"smiles": "COC(=O)C1Cc2c([nH]c3ccccc23)CN1C(=S)Sc1cccs1", "note": "(stereo not given)", "melting point": "150 to 152"}
{"smiles": "COc1ccc(Cn2c(=O)c(Cl)nc3ccc4ccccc4c32)c(OC)c1", "melting point": 186}
{"smiles": "O=c1[nH]c2c(Cl)cccc2s1", "melting point": "203 to 204"}
{"smiles": "CCCOc1ccc(-c2csc(-c3ccccc3Cl)c2CC(=O)N=C(N)N)cc1", "melting point": "111 to 113"}
{"smiles": "COC(=O)c1cccc2nc(N3CCOCC3)n(Cc3ccc(-c4ccccc4)c(-c4nnn[nH]4)c3)c12", "melting point": "163 to 167"}
{"smiles": "CCOC(=O)c1c(CCCCc2nccn2C)nc2cc(OC)c(OC)cc2c1-c1ccc(OC)c(OC)c1", "melting point": "180 to 183"}
{"smiles": "CCCCn1nc(C(F)(F)CC)nc1Cc1ccc(-c2ccccc2-c2nnn[nH]2)nc1", "melting point": "98 to 100"}
{"smiles": "CN(O)C(=O)c1ccc(CCCCc2ccccc2C(=O)O)cc1", "melting point": "94 to 95"}
{"smiles": "CCCc1c(OCCCS(=O)(=O)c2ccc(CC(=O)OC)cn2)ccc(C(C)=O)c1O", "melting point": "124 to 126"}
{"smiles": "CCOC(=O)CC(CCCCNC(=O)c1sc(NC(=N)N)nc1C)c1ccccc1", "note": "(racemic)", "melting point": 138}
{"smiles": "CCCCCCCCCCCCCCC(CCCCCCCCCCCCCC)C(=O)O", "melting point": "73.5 to 75"}
{"smiles": "CC(C)n1cc(-c2cnc3c(c2)nnn3Cc2ccc3ncccc3c2)cn1", "melting point": "126 to 128"}
{"smiles": "CNC(=O)C=Cc1cn(C)nc1[N+](=O)[O-]", "melting point": "200 to 203"}
{"smiles": "CCOc1cccc(C(c2ccccc2Cl)n2nc(C(=O)O)c3c2-c2ccc(OCc4cncnc4)cc2CC3)c1", "note": "(stereo not given)", "melting point": "234 to 235"}
{"smiles": "C#CCSC(=NC(=O)OC)NC(=O)Nc1ccc(C)cc1", "melting point": "161 to 162"}
{"smiles": "O=c1oc(-c2cccc(F)c2)nc2cccc(Cl)c12", "melting point": "120 to 123"}
{"smiles": "Cn1nnnc1SCC(=O)NC/C=C\\COc1cc(CN2CCCCC2)ccn1", "melting point": "58 to 62"}
{"smiles": "Brc1ccc(Cc2nccc(-c3ccc(Br)cc3)n2)cc1", "melting point": "93 to 94"}
{"smiles": "COc1cc(Cn2cnc3cccnc32)ccc1C(=O)N(C1CCCC1)C1CC(C)CC(C)C1", "note": "(stereo not given)", "melting point": "80 to 82"}
{"smiles": "Clc1ccc2c(c1)C(c1ccccc1Cl)NCc1cncnc1-2", "note": "(stereo not given)", "melting point": "169 to 170"}
{"smiles": "CN1CCCC(Nc2nc3ccccc3[nH]2)CC1", "note": "(stereo not given)", "melting point": 168}
{"smiles": "COc1ccc(CC2CCC3NC(=O)CCC3C2)cc1", "note": "(stereo not given)", "melting point": "194 to 196"}
{"smiles": "Cc1ccc(C(=O)c2ccccc2C2=NCCN2C(C)C)cc1", "melting point": "87 to 89"}
{"smiles": "O=[N+]([O-])c1cccc(OCc2ccccc2)c1Cl", "melting point": 94}
{"smiles": "CN1CCN(C(=NNS(=O)(=O)c2ccccc2)c2ccc(Cl)cc2Cl)CC1", "melting point": "174 to 176"}
{"smiles": "CN(C)Cc1cnc2n1-c1ccc(Cl)cc1C(c1ccccc1)=NC2", "melting point": "181 to 182"}
{"smiles": "COc1ccc(Oc2ccccc2)c(N)c1", "melting point": "112 to 114"}
{"smiles": "CCCc1nn(-c2ccc(C(F)(F)F)cn2)cc1CCCOc1c(CC(=O)O)cnn1C", "melting point": "136 to 138"}
{"smiles": "CN(C)C1CCc2[nH]c3ccccc3c2C1", "note": "(stereo not given)", "melting point": 138}
{"smiles": "Cc1ccc(S(=O)(=O)OC(=O)c2cccc(C(=O)OS(=O)(=O)c3ccc(C)cc3)c2)cc1", "melting point": "172 to 178"}
{"smiles": "COC(=O)c1c(O)cc(OCC(=O)c2ccc3c(c2)C(C)(C)CCC3(C)C)cc1O", "melting point": "162 to 163"}
{"smiles": "CC(=O)SCCC(=O)N1N=C(c2ccc(C(F)(F)F)cc2)SC1C(=O)OCc1ccccc1", "note": "(stereo not given)", "melting point": "120 to 121"}
{"smiles": "Oc1ccc(CCN(Cc2ccccc2)CC(O)COc2ccccc2)cc1", "note": "(stereo not given)", "melting point": "103 to 105"}
{"smiles": "CON1CCC2(CC1)NC(=O)C(c1cc(C)ccc1C)=C2O", "melting point": "176 to 177"}
{"smiles": "CCCCNC(=O)OC1c2cccnc2C(=O)N1c1ccc2ccc(Cl)nc2n1", "note": "(stereo not given)", "melting point": 215}
{"smiles": "CCSc1cc(O)nc(N(C)C)n1", "melting point": "184 to 185"}
{"smiles": "CCOP(=O)(OCC)C(O)=C1CCc2cc(CC3CCCC3)c(Cl)cc21", "melting point": 126}
{"smiles": "COc1ccc(-c2ccc(C#N)cc2C(F)(F)F)cc1C=O", "melting point": "116 to 118"}
{"smiles": "Cc1ccc2c(c1)c(O)c(C(=O)NC1CCCCC1)c(=O)n2Cc1ccc(F)cc1", "melting point": 156}
{"smiles": "O=c1ccc2c(-n3ccnc3)nccc2[nH]1", "melting point": "291 to 292"}
{"smiles": "C1=C(c2c[nH]c3ccccc23)CCN(CC2COc3ccc4ncccc4c3O2)C1", "note": "(stereo not given)", "melting point": 217}
{"smiles": "CCCc1nnc2n1-c1sc(CC)cc1C(c1ccccc1Cl)=NC2NC(=O)c1ccc2ccccc2c1", "note": "(stereo not given)", "melting point": "226 to 227"}
{"smiles": "COC(=O)c1nc(Cl)c(Cl)c(Cl)c1N", "melting point": "151 to 152"}
{"smiles": "CNC(=NS(C)(=O)=O)NCCSCc1csc(NC(N)=NCC(F)F)n1", "melting point": "85 to 89"}
{"smiles": "C#CCNC(=O)c1nn(-c2c(Cl)cc(C(F)(F)F)cc2Cl)c(N)c1S(=O)C(F)(F)F", "note": "(stereo not given)", "melting point": 207}
{"smiles": "COc1ccc(-n2cc(CCCOc3c(CC(=O)O)cccc3OC)c(C(C)C)n2)nn1", "melting point": "124 to 125"}
{"smiles": "O=C1OC(c2ccccc2)N=C1CCCNC(=O)c1ccccc1", "note": "(stereo not given)", "melting point": "135 to 138"}
{"smiles": "CC12C=CC(=O)C(N=C=S)=C1C=CC1C2CCC2(C)C(=O)CCC12", "note": "(stereo not given)", "melting point": "146 to 166"}
{"smiles": "NC1C(=O)N(CCCO)c2ccccc2N(c2ccccc2)C1=O", "note": "(stereo not given)", "melting point": "55 to 58"}
{"smiles": "CCCCCCCCCCCCCOc1ccc(CNc2ccc(C(=O)OCC)cc2)cc1", "melting point": "95 to 105"}
{"smiles": "Oc1ccc(C2(c3ccc(O)cc3)c3ccccc3C(c3ccc(O)cc3)(c3ccc(O)cc3)c3ccccc32)cc1", "melting point": "208 to 209"}
{"smiles": "COC1(NC(=O)NS(=O)(=O)c2cccc(N=C=O)c2)C=C(C)N=CN1", "note": "(stereo not given)", "melting point": "147 to 157"}
{"smiles": "CCCN(CCC)C1Cc2c(OC)ccc3ncn(c23)C1", "note": "(stereo not given)", "melting point": "46 to 49"}
{"smiles": "CN1C(=O)[C@@H](CN2CCCCC2)C[C@H]1c1ccc(Br)cc1", "melting point": "55 to 58"}
{"smiles": "C=C(C)COc1ccc(CC(=O)OC)cc1[N+](=O)[O-]", "melting point": "30 to 31.5"}
{"smiles": "CC(C)COc1ccc(-n2cc(C(=O)O)cn2)cc1C#N", "melting point": "192 to 194"}
{"smiles": "Ic1ccc(N(c2ccccc2)c2ccccc2)cc1", "melting point": "102 to 104"}
{"smiles": "COC(=O)C=Cc1cncc2ccccc12", "melting point": "79 to 80"}
{"smiles": "O=C1CCCC(=O)N1c1ccncc1", "melting point": "153 to 155"}
{"smiles": "C=C(Cn1ccnc1)c1ccccc1O", "melting point": "139 to 141"}
{"smiles": "CCCCCCCCCCCCCCc1onc(C(=O)OC)c1O", "melting point": 92}
{"smiles": "CCOc1cc(OC)cc(O)c1C(=O)C=Cc1ccc(OC)cc1", "melting point": 124}
{"smiles": "COc1ccc(C2CN(Cc3ccccc3)Cc3c2ccc(OC)c3Cl)cc1OC", "note": "(stereo not given)", "melting point": "88 to 91"}
{"smiles": "Fc1ccc(-c2nc(SCCCCSc3nc(-c4ccc(F)cc4)c(-c4ccc(F)cc4)[nH]3)[nH]c2-c2ccc(F)cc2)cc1", "melting point": "172 to 174"}
{"smiles": "Fc1cc(F)cc(N2c3ccccc3Sc3ccccc32)c1", "melting point": "111 to 115"}
{"smiles": "O=C(O)CCCCCn1c2ccccc2c(=O)c2ccccc21", "melting point": 167}
{"smiles": "CCCCCCCCCCCCCCS(=O)(=O)c1cc(S(C)(=O)=O)ccc1-n1oc(C(C)(C)C)c(CCl)c1=O", "melting point": "110 to 111"}
{"smiles": "CC(=NO)c1ccnc(Cl)c1", "melting point": 143}
{"smiles": "COc1ccc2c(c1)C(c1ccccc1Cl)C(=O)N2", "note": "(stereo not given)", "melting point": 179}
{"smiles": "CCOC(=O)c1c(-c2ccc(F)cc2)c2ccncc2c(=O)n1C", "melting point": "158 to 160"}
{"smiles": "CCCc1c(OCc2cc(C=CC(=O)O)ccc2OC)ccc(C(C)=O)c1O", "melting point": "245 to 246"}
{"smiles": "Cc1ccc(Sc2ccnc(Cl)n2)cc1", "melting point": "80 to 81"}
{"smiles": "CC(C)(C)OC(=O)N1CCC(c2ccc3[nH]c(-c4ccc(S(C)(=O)=O)cc4F)nc3c2)CC1", "melting point": "208 to 212"}
{"smiles": "COc1ccc(N2CCN(CC(=O)Nc3nc(-c4ccccc4)cs3)CC2)cc1", "melting point": "186 to 189"}
{"smiles": "O=[N+]([O-])c1cccnc1NCc1ccccc1", "melting point": "81 to 82"}
{"smiles": "O=C(N[C@H]1CCN(CCc2ccc(F)cc2)C1)C(c1ccccc1F)c1ccccc1F", "melting point": "107 to 108"}
{"smiles": "COc1cc(C)c(C(=O)c2c(Cl)cncc2C(F)(F)F)c(OC)c1OC", "melting point": "75 to 77"}
